Data set [1] is described as follows: Sensory test: degree of sweetness compared with sucrose (sugar) solution. To be noted: for Degree of sweetness (multiplying power of sweetness): compared with a 4 to 5% sucrose solution. The source says:
The derivative of the invention, i.e., the compound and the form of the salt thereof of the invention was proven to have strong sweetness with a quality of sweetness that is similar to sugar, as a result of a sensory test. For example, the degree of sweetness of 2-amino-4,5-dihydroxy-4-(3-indolylmethyl)pentanoic acid (mixture of the (2S,4S) isomer and (2R,4R) isomer at a ratio of 1:1) was about 1250 times as high as that of sugar, and the degree of sweetness of (2R,4R)-2-amino-4-hydroxy-4-ethylcarbamoyl-4-(3-indolylmethyl)butyric acid was about 1600 times as high as that of sugar. […] Structure and results of the sensory test on several synthesized amino acid derivatives (represented by the following formula (1)) are presented in Table 1.

Data set [2] can be described thus: Stability (half life) in aqueous acidic solution, citrate buffer pH 3, 70° C. In kind it is physicochemical. Conditions: citrate buffer solution of pH=3, at 70° C.
The conditions of data set [3]: (2S,4S) isomer derived from natural plant; literature report; cited from earlier work.
Setting [4] is: compared with a 5% sugar solution.

“And” between values parts separate entries of the source, which are not always exact repeats. Equal entries are not always repeated. Where two headings read alike, the source gives them in different places. Peptide text beside a SMILES is read from it.

For the molecule `NC(CC(O)(CO)Cc1c[nH]c2ccccc12)C(=O)O` (mixture of isomers) [Compound No. 3, (2S,4S)- and (2R,4R)-2-amino-4,5-dihydroxy-4-(3-indolylmethyl)pentanoic acid mixture], the “Degree of sweetness (multiplying power of sweetness)” value in data set [1] was “about 1250”. The Degree of sweetness result is “About 1250 times” in data set [1] (setting [4]) and “about 1250 times as high as that of sugar” in data set [1] (sensory test).

Regarding `NC(CC(O)(CO)Cc1c[nH]c2ccccc12)C(=O)O` (mixture of isomers) [Compound No. 4, (2S,4R)- and (2R,4S)-2-amino-4,5-dihydroxy-4-(3-indolylmethyl)pentanoic acid mixture], the “Degree of sweetness (multiplying power of sweetness)” value in data set [1] was “about 750”. The Degree of sweetness entry in data set [1] (setting [4]) was “About 750 times”.

`N[C@H](C[C@H](Cc1c[nH]c2ccccc12)C(=O)O)C(=O)O` [Compound No. 1, (2R,4S)-2-amino-4-(3-indolyl)methyl pentandioic acid]: the “Degree of sweetness (multiplying power of sweetness)” value in data set [1] is recorded as “about 200”. The Degree of sweetness entry in data set [1] (setting [4]) is “About 200 times”.

With `Cc1ccc2c(CC(O)(C[C@H](N)C(=O)O)C(=O)O)c[nH]c2c1` (stereo partly drawn) [Compound No. 2, 4-hydroxy-4-(6-methylindole-3-ylmethyl)glutamic acid], the “Degree of sweetness (multiplying power of sweetness)” value in data set [1] is “about 650”. Further, in data set [1] (setting [4]), the Degree of sweetness entry is “About 650 times”.

Turning to `CC(O)(Cc1c[nH]c2ccccc12)CC(N)C(=O)O` (stereo not drawn) [Compound No. 5, 2-amino-4-hydroxy-4-(3-indolylmethyl)pentanoic acid], the “Degree of sweetness (multiplying power of sweetness)” value in data set [1] is on record as “about 900”. Moreover, in data set [1] (setting [4]), the Degree of sweetness result is listed as “About 900 times”.

Consider `CCC(O)(Cc1c[nH]c2ccccc12)CC(N)C(=O)O` (stereo not drawn) [Compound No. 6, 2-amino-4-hydroxy-4-(3-indolylmethyl)hexanoic acid], for which, in data set [1], the “Degree of sweetness (multiplying power of sweetness)” value is listed as “about 500”. For the same molecule, the Degree of sweetness entry in data set [1] (setting [4]) is given as “About 500 times”.

On to `CNC(=O)[C@@](O)(Cc1c[nH]c2ccccc12)C[C@@H](N)C(=O)O` [Compound No. 7, (2R,4R)-2-amino-4-hydroxy-4-methylcarbamoyl-4-(3-indolylmethyl)butyric acid], for which, in data set [1], the “Degree of sweetness (multiplying power of sweetness)” value is on record as “about 200”. For the same molecule, the Degree of sweetness entry in data set [1] (setting [4]) is listed as “About 200 times”.

As a reminder, the half-life is how long it takes for the measured level to halve. A high value points to slow decline. Consider `CCNC(=O)[C@@](O)(Cc1c[nH]c2ccccc12)C[C@@H](N)C(=O)O` [Compound No. 8, (2R,4R)-2-amino-4-hydroxy-4-ethylcarbamoyl-4-(3-indolylmethyl)butyric acid], for which the half-life in data set [2] was about 97 h. The “Degree of sweetness (multiplying power of sweetness)” value in data set [1] is reported as “about 1600”. For the same molecule, the Degree of sweetness result in data set [1] (setting [4]) is “About 1600 times”; in data set [1] (sensory test), “about 1600 times as high as that of sugar”.

In turn, `COC(=O)[C@H](Cc1ccccc1)NC(=O)[C@@H](N)CC(=O)O` [aspartame, reference compound] (H-Asp-Phe-OMe) had a half-life in data set [2] of about 35 h.

For the molecule `N[C@@H](C[C@@](O)(Cc1c[nH]c2ccccc12)C(=O)O)C(=O)O` [monatin, (2S,4S)-2-amino-4-carboxy-4-hydroxy-5-(3-indolyl)pentanoic acid], in data set [3], the Degree of sweetness is 800 times of sucrose and 1400 times of sucrose.

Values taken from patent US7244462B2, “Amino acid derivative and sweetening agent” (Ajinomoto Co., Inc., priority 2003, dated 2007).
